Read-outs that look alike come from different tables or passages of the source.
How the values were obtained:
WSU-DLCL2 cells = assay: Cell proliferation analysis (WSU-DLCL2, Cell Titer Glo); type: cell-based; conditions: Homo sapiens, 6 days
[1] = biological target: wild-type EZH2 (PRC2 complex) (Homo sapiens (Human), UniProt Q15910); assay: PRC2 enzyme assay on peptide substrates (wild-type EZH2)
[2] = test system: H3K27me3 in WSU-DLCL2 cells; assay: WSU-DLCL2 methylation assay (H3K27me3 ELISA); type: cell-based; conditions: Homo sapiens, 96 hours
[3] = WSUDLCL2, Table 3A, read-out: WSU Prolif. IC50
[4] = WSUDLCL2, Table 3A, read-out: H3K27Me3 ELISA IC50
[5] = WSUDLCL2, Table 3B, read-out: WSU proliferation IC50
[6] = WSUDLCL2, Table 3B, read-out: ELISA H3K27me3 IC50
[7] = read-out: WT EZH2 IC50, Table 3B, wild-type PRC2 enzyme, peptide substrate

wild-type EZH2 (PRC2 complex), sequence (Q15910 other isoform, or with tags, fused parts or gaps): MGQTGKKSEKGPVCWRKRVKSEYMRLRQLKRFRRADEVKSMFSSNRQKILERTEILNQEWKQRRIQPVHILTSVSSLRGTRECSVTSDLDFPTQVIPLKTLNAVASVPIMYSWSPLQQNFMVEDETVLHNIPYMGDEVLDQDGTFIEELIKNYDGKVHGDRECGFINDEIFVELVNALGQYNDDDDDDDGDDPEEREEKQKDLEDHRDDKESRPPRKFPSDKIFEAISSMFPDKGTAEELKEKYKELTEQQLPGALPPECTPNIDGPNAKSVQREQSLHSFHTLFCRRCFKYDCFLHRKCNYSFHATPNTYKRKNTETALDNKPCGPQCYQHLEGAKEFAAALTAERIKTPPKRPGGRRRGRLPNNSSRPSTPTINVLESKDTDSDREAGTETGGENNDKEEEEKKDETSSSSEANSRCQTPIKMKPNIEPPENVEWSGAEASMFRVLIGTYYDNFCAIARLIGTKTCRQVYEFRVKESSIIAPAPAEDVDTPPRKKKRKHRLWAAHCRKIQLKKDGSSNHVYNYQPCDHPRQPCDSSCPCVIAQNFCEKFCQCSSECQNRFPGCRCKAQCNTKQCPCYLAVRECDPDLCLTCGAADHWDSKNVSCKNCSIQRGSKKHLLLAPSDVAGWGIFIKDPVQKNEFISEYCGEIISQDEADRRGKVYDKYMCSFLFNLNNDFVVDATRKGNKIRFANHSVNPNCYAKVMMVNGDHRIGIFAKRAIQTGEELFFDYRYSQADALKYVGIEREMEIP
wild-type EZH2 (PRC2 complex), sequence (O75530 whole entry partner): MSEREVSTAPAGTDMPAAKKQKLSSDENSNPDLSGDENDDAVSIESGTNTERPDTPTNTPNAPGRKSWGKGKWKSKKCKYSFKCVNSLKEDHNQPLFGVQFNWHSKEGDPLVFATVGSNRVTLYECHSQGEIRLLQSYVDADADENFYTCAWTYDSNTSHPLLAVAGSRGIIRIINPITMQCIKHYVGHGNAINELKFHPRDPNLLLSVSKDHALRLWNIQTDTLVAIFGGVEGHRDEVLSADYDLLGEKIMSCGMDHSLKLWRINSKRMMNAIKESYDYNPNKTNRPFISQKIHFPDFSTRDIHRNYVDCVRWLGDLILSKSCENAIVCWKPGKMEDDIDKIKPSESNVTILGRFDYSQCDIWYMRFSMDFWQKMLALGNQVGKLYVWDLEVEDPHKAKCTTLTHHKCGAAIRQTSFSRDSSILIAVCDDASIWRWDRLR
wild-type EZH2 (PRC2 complex), sequence (Q15022 whole entry partner): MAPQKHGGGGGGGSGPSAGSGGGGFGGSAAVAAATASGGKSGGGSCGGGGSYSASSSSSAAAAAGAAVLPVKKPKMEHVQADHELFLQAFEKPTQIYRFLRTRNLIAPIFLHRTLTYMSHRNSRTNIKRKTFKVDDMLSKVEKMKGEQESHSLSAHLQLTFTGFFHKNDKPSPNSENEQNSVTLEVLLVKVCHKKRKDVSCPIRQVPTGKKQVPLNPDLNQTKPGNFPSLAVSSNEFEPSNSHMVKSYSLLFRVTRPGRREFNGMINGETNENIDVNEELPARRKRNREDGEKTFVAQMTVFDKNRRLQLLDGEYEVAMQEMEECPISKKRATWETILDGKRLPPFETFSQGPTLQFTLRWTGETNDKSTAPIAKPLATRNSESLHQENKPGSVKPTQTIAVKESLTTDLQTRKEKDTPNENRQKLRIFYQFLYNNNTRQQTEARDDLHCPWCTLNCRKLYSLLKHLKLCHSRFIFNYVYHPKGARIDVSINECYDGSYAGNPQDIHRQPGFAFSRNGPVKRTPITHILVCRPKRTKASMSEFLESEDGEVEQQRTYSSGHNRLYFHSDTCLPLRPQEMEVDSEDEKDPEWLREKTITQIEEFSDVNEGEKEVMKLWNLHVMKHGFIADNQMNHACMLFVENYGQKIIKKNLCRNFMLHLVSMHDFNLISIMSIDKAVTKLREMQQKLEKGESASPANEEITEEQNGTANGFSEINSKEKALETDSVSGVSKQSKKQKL
wild-type EZH2 (PRC2 complex), sequence (Q09028 whole entry partner): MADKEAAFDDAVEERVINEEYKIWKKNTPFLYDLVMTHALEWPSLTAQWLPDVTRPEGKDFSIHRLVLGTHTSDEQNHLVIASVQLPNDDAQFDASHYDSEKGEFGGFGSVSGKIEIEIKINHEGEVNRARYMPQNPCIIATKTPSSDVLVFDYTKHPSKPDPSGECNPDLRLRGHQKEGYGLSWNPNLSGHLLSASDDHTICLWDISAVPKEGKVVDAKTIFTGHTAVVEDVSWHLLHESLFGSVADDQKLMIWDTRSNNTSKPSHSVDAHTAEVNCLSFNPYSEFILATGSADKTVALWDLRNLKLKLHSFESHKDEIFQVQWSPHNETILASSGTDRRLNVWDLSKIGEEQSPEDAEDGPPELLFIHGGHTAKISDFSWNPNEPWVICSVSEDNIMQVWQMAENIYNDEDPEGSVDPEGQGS

Row | IC50 [1] | IC50 [2, 4] | IC50 [2, 6] | IC50 [1, 7] | Compound | IC50 (WSU-DLCL2 cells; [3]) | IC50 (WSU-DLCL2 cells; [5])
1 | 11.3 nM | – | – | – | CCN(c1cc(-c2ccc(OCCO)cc2)cc(C(=O)NCc2c(C)cc(C)[nH]c2=O)c1C)[C@H]1CC[C@H](N(C)C)CC1 [Compound 3, N-((4,6-dimethyl-2-oxo-1,2-dihydropyridin-3-yl)methyl)-5-(((trans)-4-(dimethylamino)cyclohexyl)(ethyl)amino)-4′-(2-hydroxyethoxy)-4-methyl-[1,1′-biphenyl]-3-carboxamide] | 186 nM | –
2 | 8.9 nM | 21800 nM | – | – | CCN(c1cc(-c2ccc(OCCO)nc2)cc(C(=O)NCc2c(C)cc(C)[nH]c2=O)c1C)[C@H]1CC[C@H](N(C)C)CC1 [Compound 4, N-((4,6-dimethyl-2-oxo-1,2-dihydropyridin-3-yl)methyl)-3-(((trans)-4-(dimethylamino)cyclohexyl)(ethyl)amino)-5-(6-(2-hydroxyethoxy)pyridin-3-yl)-2-methylbenzamide] | 23600 nM | –
3 | 21 nM | 458 nM | – | – | CCN(c1cc(C#CCN2CCN(C)CC2)cc(C(=O)NCc2c(C)cc(C)[nH]c2=O)c1C)[C@H]1CC[C@H](N(C)CCOC)CC1 [Compound 7, N-((4,6-dimethyl-2-oxo-1,2-dihydropyridin-3-yl)methyl)-3-(ethyl((trans)-4-((2-methoxyethyl)(methyl)amino)cyclohexyl)amino)-2-methyl-5-(3-(4-methylpiperazin-1-yl)prop-1-yn-1-yl)benzamide] | 651 nM | –
4 | 5.3 nM | 515 nM | – | – | CCN(c1cc(F)cc(C(=O)NCc2c(C)cc(C)[nH]c2=O)c1C)[C@H]1CC[C@H](N(C)CCOC)CC1 [Compound 9, N-((4,6-dimethyl-2-oxo-1,2-dihydropyridin-3-yl)methyl)-3-(ethyl((trans)-4-((2-methoxyethyl)(methyl)amino)cyclohexyl)amino)-5-fluoro-2-methylbenzamide] | 1310 nM | –
5 | 7.36 nM | 469 nM | – | – | CCN(c1cccc(C(=O)NCc2c(C)cc(C)[nH]c2=O)c1C)[C@H]1CC[C@H](N(C)CCOC)CC1 [Compound 10, N-((4,6-dimethyl-2-oxo-1,2-dihydropyridin-3-yl)methyl)-3-(ethyl((trans)-4-((2-methoxyethyl)(methyl)amino)cyclohexyl)amino)-2-methylbenzamide] | 307 nM | –
6 | 6.27 nM | 673 nM | – | – | CCN(c1cc(OC)cc(C(=O)NCc2c(C)cc(C)[nH]c2=O)c1C)[C@H]1CC[C@H](N(C)CCOC)CC1 [Compound 11, N-((4,6-dimethyl-2-oxo-1,2-dihydropyridin-3-yl)methyl)-3-(ethyl((trans)-4-((2-methoxyethyl)(methyl)amino)cyclohexyl)amino)-5-methoxy-2-methylbenzamide] | – | –
7 | 29 nM | 308 nM | – | – | CCN(c1cc(OCCOC)cc(C(=O)NCc2c(C)cc(C)[nH]c2=O)c1C)[C@H]1CC[C@H](N(C)CCOC)CC1 [Compound 12, N-((4,6-dimethyl-2-oxo-1,2-dihydropyridin-3-yl)methyl)-3-(ethyl((trans)-4-((2-methoxyethyl)(methyl)amino)cyclohexyl)amino)-5-(2-methoxyethoxy)-2-methylbenzamide] | – | –
8 | 4.86 nM | 340 nM | – | – | CCN(c1cc(-c2ccc(C)nc2)cc(C(=O)NCc2c(C)cc(C)[nH]c2=O)c1C)[C@H]1CC[C@H](N(C)CCOC)CC1 [Compound 15] | 346 nM | –
9 | 5.96 nM | 287 nM | – | – | CCN(c1cc(-c2ccc(OC)nc2)cc(C(=O)NCc2c(C)cc(C)[nH]c2=O)c1C)[C@H]1CC[C@H](N(C)CCOC)CC1 [Compound 16] | 675 nM | –
10 | 12.9 nM | 402 nM | – | – | CCN(c1cc(-c2cnc(OC)cn2)cc(C(=O)NCc2c(C)cc(C)[nH]c2=O)c1C)[C@H]1CC[C@H](N(C)CCOC)CC1 [Compound 17] | 507 nM | –
11 | 8.59 nM | 553 nM | – | – | CCN(c1cc(-c2cnc(C)cn2)cc(C(=O)NCc2c(C)cc(C)[nH]c2=O)c1C)[C@H]1CC[C@H](N(C)CCOC)CC1 [Compound 18] | – | –
12 | 10.1 nM | 840 nM | – | – | CCN(c1cc(-c2cncnc2)cc(C(=O)NCc2c(C)cc(C)[nH]c2=O)c1C)[C@H]1CC[C@H](N(C)CCOC)CC1 [Compound 21] | 1390 nM | –
13 | 28.3 nM | 1040 nM | – | – | CCN(c1cc(-c2cnccn2)cc(C(=O)NCc2c(C)cc(C)[nH]c2=O)c1C)[C@H]1CC[C@H](N(C)CCOC)CC1 [Compound 22] | – | –
14 | < 5 nM | 401 nM | – | – | CCN(c1cc(-c2cnn(C)c2)cc(C(=O)NCc2c(C)cc(C)[nH]c2=O)c1C)[C@H]1CC[C@H](N(C)CCOC)CC1 [Compound 23] | – | –
15 | 8.9 nM | 650 nM | – | – | CCN(c1cc(C2CCOCC2)cc(C(=O)NCc2c(C)cc(C)[nH]c2=O)c1C)[C@H]1CC[C@H](N(C)CCOC)CC1 [Compound 25] | 2220 nM | –
16 | – | – | 126 nM | < 10 nM | CCN(c1cc(C#CCN2C[C@@H](C)N[C@@H](C)C2)cc(C(=O)NCc2c(C(C)C)cc(C)[nH]c2=O)c1C)C1CCOCC1 [Compound 101] | – | 536 nM
17 | – | – | 256 nM | 10 nM | CCN(c1cc(C#CC2CCN(C[C@@H](C)O)CC2)cc(C(=O)NCc2c(C(C)C)cc(C)[nH]c2=O)c1C)C1CCOCC1 [Compound 102] | – | 614 nM
18 | – | – | 232 nM | < 10 nM | CCN(c1cc(C#CC2CCN(C[C@H](C)O)CC2)cc(C(=O)NCc2c(C(C)C)cc(C)[nH]c2=O)c1C)C1CCOCC1 [Compound 103] | – | 745 nM
19 | – | – | 66 nM | < 10 nM | CCN1CCC(C#Cc2cc(C(=O)NCc3c(C)cc(C)[nH]c3=O)c(C)c(N(CC)C3CCOCC3)c2)CC1 [Compound 104] | – | 549 nM
20 | – | – | 44 nM | < 10 nM | CCN(c1cc(C#CCN2CCCCC2)cc(C(=O)NCc2c(C)cc(C)[nH]c2=O)c1C)C1CCOCC1 [Compound 106] | – | 188 nM
21 | – | – | 28 nM | 11 nM | CCN(c1cc(C#CCN2CCCC2)cc(C(=O)NCc2c(C)cc(C)[nH]c2=O)c1C)C1CCOCC1 [Compound 107] | – | 26.2 nM
22 | – | – | 42 nM | < 10 nM | CCN(c1cc(C#CCN2CCC[C@H](O)C2)cc(C(=O)NCc2c(C)cc(C)[nH]c2=O)c1C)[C@H]1CC[C@H](N(C)C)CC1 [Compound 108] | – | 438 nM
23 | – | – | 244 nM | < 10 nM | CCN(c1cc(C#CCN2CC(O)C2)cc(C(=O)NCc2c(C)cc(C)[nH]c2=O)c1C)[C@H]1CC[C@H](N(C)C)CC1 [Compound 109] | – | 1060 nM
24 | – | – | 2010 nM | < 10 nM | CCN(c1cc(C#CCN2CC(O)C2)cc(C(=O)NCc2c(C(C)C)cc(C)[nH]c2=O)c1C)[C@H]1CC[C@H](N(C)C)CC1 [Compound 110] | – | 2450 nM
25 | < 5 nM | 140 nM | – | – | CCN(c1cc(C#CC2CCN(C3CC3)CC2)cc(C(=O)NCc2c(C)cc(C)[nH]c2=O)c1C)C1CCOCC1 [Compound 157] | – | –
26 | < 5 nM | 215 nM | – | – | CCN(c1cc(C#CC2CCN(C3CCC3)CC2)cc(C(=O)NCc2c(C)cc(C)[nH]c2=O)c1C)C1CCOCC1 [Compound 158] | – | –
27 | < 5 nM | 262 nM | – | – | CCN(c1cc(C#CC2CCN(C3COC3)CC2)cc(C(=O)NCc2c(C)cc(C)[nH]c2=O)c1C)C1CCOCC1 [Compound 159] | – | –
28 | 14 nM | 94 nM | – | – | CCN(c1cc(C#CC2CCN(C(C)=O)CC2)cc(C(=O)NCc2c(C)cc(C)[nH]c2=O)c1C)[C@H]1CC[C@H](N(C)C)CC1 [Compound 160] | – | –
29 | < 5 nM | 34 nM | – | – | CCN(c1cc(C#CC2CCN(CC(F)(F)F)CC2)cc(C(=O)NCc2c(C)cc(C)[nH]c2=O)c1C)[C@H]1CC[C@H](N(C)C)CC1 [Compound 161] | – | –
30 | < 5 nM | 43 nM | – | – | CCN(c1cc(C#CC2CCN(C)CC2)cc(C(=O)NCc2c(OC)cc(C)[nH]c2=O)c1C)C1CCOCC1 [Compound 163] | – | –

Row | Compound | IC50 [1] | IC50 [2, 4] | IC50 [2, 6] | IC50 [1, 7] | IC50 (WSU-DLCL2 cells; [3]) | IC50 (WSU-DLCL2 cells; [5])
31 | CCN(c1cc(C#CC(C)(C)O)cc(C(=O)NCc2c(C)cc(C)[nH]c2=O)c1C)[C@H]1CC[C@H](N(C)CCOC)CC1 [Compound 8, N-((4,6-dimethyl-2-oxo-1,2-dihydropyridin-3-yl)methyl)-3-(ethyl((trans)-4-((2-methoxyethyl)(methyl)amino)cyclohexyl)amino)-5-(3-hydroxy-3-methylbut-1-yn-1-yl)-2-methylbenzamide] | 8.82 nM | 292 nM | – | – | 110 nM | –
32 | CCN(c1cc(F)cc(C(=O)NCc2c(C)cc(C)n(C)c2=O)c1C)C1C[C@@H](C)N[C@H](C)C1 (stereo partly drawn) [Compound 113] | – | – | > 25000 nM | 1220 nM | – | > 20000 nM
33 | CCN(c1cc(F)cc(C(=O)NCc2c(C)c(F)c(C)n(C)c2=O)c1C)C1C[C@@H](C)N[C@H](C)C1 (stereo partly drawn) [Compound 115] | – | – | > 25000 nM | 497 nM | – | > 20000 nM
34 | CCCc1cc(C)[nH]c(=O)c1CNC(=O)c1cc(F)cc(N(CC)C2C[C@@H](C)N[C@H](C)C2)c1C (stereo partly drawn) [Compound 116] | – | – | > 25000 nM | 132 nM | – | 13200 nM
35 | CCN(c1cc(F)cc(C(=O)NCc2c(C(C)C)cc(C)[nH]c2=O)c1C)C1C[C@@H](C)N[C@H](C)C1 (stereo partly drawn) [Compound 117] | – | – | 8960 nM | 350 nM | – | > 20000 nM
36 | CCN(c1cc(F)cc(C(=O)NCc2c(C)cc(C)[nH]c2=O)c1C)C1C[C@@H](C)N(C)[C@H](C)C1 (stereo partly drawn) [Compound 118] | – | – | 11700 nM | 36.3 nM | – | 3950 nM
37 | CCN(c1cc(F)cc(C(=O)NCc2c(C)cc(C)[nH]c2=O)c1C)C1C[C@@H](C)N(CC)[C@H](C)C1 (stereo partly drawn) [Compound 119] | – | – | 11300 nM | 18.5 nM | – | 3380 nM
38 | CCN(c1cc(-c2ccc(OC)nc2)cc(C(=O)NCc2c(C)cc(C)[nH]c2=O)c1C)C1C[C@@H](C)N[C@H](C)C1 (stereo partly drawn) [Compound 120] | – | – | 1430 nM | < 10 nM | – | 1380 nM
